Literature values as cited in patent publication US11039615B2, “Methods of processing chlorhexidine-containing polymerizable compositions and antimicrobial articles formed thereby” (entrotech life sciences, inc., priority 2014, dated 2021).

Details: documented in Ranganathan 1996

temperature at which chlorhexidine decomposes to PCA: ≥ 40 °C
Structure (SMILES): [H]/N=C(\N/C(=N/[H])NCCCCCCNC(=N)NC(=N)Nc1ccc(Cl)cc1)Nc1ccc(Cl)cc1 [chlorhexidine]
